# Source: article PMC11207571, “Applicability of MDR1 Overexpressing Abcb1KO-MDCKII Cell Lines for Investigating In Vitro Species Differences and Brain Penetration Prediction” (Pharmaceutics, 2024)
# What was measured:
# rat Mdr1a [1] = molecular target: T1, rat Mdr1a (Rattus norvegicus, UniProt Q6PSM0); assay: Inhibition of 3H-digoxin or 3H-quinidine bidirectional transport in rMDR1 cells; type: cell-based; parameters: rat Mdr1a (NM_133401.1); expressed in transfected cells; host or cells: Abcb1KO-MDCKII (canine kidney, endogenous Abcb1 knocked out), transduced, single-cell clone; settings: IC50 from ER
# cynomolgus monkey Mdr1 [2] = molecular target: T2, cynomolgus monkey Mdr1 (Macaca fascicularis, UniProt Q8HZQ6); assay: Inhibition of 3H-digoxin or 3H-quinidine bidirectional transport in cyMDR1 cells; settings: 60 min, IC50 from ER; for IC50: Inhibition of quinidine transport IC50±SD, cyMDR1, probe 3H-quinidine 0.1 µM
# mouse Mdr1a [3] = molecular target: T3, mouse Mdr1a (Mus musculus, UniProt P21447); assay: Inhibition of 3H-digoxin or 3H-quinidine bidirectional transport in mMDR1 cells; type: cell-based; parameters: mouse Mdr1a (NM_011076.3); expressed in transfected cells; host or cells: Abcb1KO-MDCKII (canine kidney, endogenous Abcb1 knocked out), transduced, single-cell clone; settings: IC50 from ER
# cynomolgus monkey Mdr1 [4] = molecular target: T2, cynomolgus monkey Mdr1; assay: cell-based
# human MDR1 [5] = molecular target: T4, human MDR1 (Homo sapiens, UniProt P08183); assay: Inhibition of 3H-digoxin or 3H-quinidine bidirectional transport in hMDR1 cells; settings: IC50 from ER
# rat Mdr1a [6] = molecular target: T1, rat Mdr1a; assay: in vitro; settings: rat, pH 7.4
# Procedure: (§1) Eluent A consisted of 0.1% formic acid in water, eluent B consisted of 0.1% formic acid in acetonitrile. Then, 10 µL samples were injected into the HPLC-MS/MS system. Mass spectrometric detection was performed in SRM mode, and ion transitions for each analyte were optimized during method development. Samples were analyzed in pools, with each pool containing three to four analytes.
# mouse Mdr1a [7] = molecular target: T3, mouse Mdr1a; assay: in vitro; settings: mouse, pH 7.4
# Procedure: as §1
# human BCRP = molecular target: T5, human BCRP (Homo sapiens, UniProt Q9UNQ0); assay: in vitro; settings: for efflux ratio at 120 min, 1 µM: human, pH 7.4
# T5 sequence (Q9UNQ0 1-655): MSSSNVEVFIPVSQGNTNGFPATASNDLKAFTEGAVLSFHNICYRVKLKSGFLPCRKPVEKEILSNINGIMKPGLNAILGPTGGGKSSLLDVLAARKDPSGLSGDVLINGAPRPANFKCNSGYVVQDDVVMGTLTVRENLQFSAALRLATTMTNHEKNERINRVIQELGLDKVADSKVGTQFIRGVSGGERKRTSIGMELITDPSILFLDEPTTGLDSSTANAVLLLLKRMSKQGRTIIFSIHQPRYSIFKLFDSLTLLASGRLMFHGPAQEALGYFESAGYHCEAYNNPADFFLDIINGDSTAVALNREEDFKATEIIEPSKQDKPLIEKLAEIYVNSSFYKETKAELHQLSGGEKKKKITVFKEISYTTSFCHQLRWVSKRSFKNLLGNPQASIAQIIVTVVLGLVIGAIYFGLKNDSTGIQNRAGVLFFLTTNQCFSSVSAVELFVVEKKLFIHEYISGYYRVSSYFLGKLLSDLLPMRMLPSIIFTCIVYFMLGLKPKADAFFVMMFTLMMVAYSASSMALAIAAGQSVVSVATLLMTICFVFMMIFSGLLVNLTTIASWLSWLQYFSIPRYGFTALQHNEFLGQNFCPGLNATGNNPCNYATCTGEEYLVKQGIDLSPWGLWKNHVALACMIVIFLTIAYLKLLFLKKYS
# Procedure: as §1
# in vitro = settings: dog, MDCK, pH 7.4
# Procedure: as §1
# cynomolgus monkey Mdr1 [8] = molecular target: T2, cynomolgus monkey Mdr1; assay: Bidirectional transport assay, efflux ratio in Abcb1KO-MDCKII cyMDR1 cells; settings: cynomolgus monkey, pH 7.4
# Procedure: as §1
# human MDR1 [9] = molecular target: T4, human MDR1; assay: in vitro; settings: human, MDCK-MDR1, pH 7.4
# Procedure: as §1
# [10] = Inhibition of digoxin transport IC50±SD, rMDR1, probe 3H-digoxin 1 µM, 120 min
# [11] = Inhibition of quinidine transport IC50±SD, rMDR1, probe 3H-quinidine 1 µM, 30 min
# [12] = Inhibition of digoxin transport IC50±SD, mMDR1, probe 3H-digoxin 1 µM, 120 min
# [13] = probe 3H-quinidine 1 µM, 60 min
# T1 sequence (Q6PSM0 1-1272): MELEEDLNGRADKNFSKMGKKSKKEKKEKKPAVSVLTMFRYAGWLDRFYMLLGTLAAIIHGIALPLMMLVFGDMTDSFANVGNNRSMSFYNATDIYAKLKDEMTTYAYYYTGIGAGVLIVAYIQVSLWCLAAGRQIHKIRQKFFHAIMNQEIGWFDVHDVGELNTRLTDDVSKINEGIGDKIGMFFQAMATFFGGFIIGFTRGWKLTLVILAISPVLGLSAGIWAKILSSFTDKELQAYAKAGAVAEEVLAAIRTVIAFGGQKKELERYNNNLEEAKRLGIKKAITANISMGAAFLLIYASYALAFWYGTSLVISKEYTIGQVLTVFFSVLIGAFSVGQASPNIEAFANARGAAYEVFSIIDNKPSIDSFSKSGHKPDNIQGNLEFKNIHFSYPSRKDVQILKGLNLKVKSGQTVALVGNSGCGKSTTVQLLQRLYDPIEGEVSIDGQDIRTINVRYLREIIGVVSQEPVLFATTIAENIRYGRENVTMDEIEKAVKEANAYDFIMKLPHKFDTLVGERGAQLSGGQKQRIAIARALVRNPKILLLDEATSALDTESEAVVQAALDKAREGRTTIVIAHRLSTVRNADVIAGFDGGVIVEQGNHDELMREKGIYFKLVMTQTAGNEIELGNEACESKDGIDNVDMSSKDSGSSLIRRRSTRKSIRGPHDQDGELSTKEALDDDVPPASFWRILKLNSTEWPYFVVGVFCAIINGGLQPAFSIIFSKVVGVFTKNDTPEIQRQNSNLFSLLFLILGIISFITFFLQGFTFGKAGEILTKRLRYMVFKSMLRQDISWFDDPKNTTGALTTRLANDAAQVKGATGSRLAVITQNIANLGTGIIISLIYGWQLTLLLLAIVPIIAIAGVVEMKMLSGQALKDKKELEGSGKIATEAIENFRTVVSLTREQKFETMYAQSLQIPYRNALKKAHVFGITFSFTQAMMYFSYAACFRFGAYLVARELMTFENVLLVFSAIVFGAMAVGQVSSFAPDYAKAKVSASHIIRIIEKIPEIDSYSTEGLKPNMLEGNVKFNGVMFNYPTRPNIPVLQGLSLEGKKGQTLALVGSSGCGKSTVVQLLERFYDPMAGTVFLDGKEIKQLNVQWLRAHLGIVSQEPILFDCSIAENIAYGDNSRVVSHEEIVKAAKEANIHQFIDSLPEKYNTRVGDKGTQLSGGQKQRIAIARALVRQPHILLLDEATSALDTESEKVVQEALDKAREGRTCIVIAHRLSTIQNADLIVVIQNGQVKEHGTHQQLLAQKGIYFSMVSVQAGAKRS
# T3 sequence (P21447 whole entry): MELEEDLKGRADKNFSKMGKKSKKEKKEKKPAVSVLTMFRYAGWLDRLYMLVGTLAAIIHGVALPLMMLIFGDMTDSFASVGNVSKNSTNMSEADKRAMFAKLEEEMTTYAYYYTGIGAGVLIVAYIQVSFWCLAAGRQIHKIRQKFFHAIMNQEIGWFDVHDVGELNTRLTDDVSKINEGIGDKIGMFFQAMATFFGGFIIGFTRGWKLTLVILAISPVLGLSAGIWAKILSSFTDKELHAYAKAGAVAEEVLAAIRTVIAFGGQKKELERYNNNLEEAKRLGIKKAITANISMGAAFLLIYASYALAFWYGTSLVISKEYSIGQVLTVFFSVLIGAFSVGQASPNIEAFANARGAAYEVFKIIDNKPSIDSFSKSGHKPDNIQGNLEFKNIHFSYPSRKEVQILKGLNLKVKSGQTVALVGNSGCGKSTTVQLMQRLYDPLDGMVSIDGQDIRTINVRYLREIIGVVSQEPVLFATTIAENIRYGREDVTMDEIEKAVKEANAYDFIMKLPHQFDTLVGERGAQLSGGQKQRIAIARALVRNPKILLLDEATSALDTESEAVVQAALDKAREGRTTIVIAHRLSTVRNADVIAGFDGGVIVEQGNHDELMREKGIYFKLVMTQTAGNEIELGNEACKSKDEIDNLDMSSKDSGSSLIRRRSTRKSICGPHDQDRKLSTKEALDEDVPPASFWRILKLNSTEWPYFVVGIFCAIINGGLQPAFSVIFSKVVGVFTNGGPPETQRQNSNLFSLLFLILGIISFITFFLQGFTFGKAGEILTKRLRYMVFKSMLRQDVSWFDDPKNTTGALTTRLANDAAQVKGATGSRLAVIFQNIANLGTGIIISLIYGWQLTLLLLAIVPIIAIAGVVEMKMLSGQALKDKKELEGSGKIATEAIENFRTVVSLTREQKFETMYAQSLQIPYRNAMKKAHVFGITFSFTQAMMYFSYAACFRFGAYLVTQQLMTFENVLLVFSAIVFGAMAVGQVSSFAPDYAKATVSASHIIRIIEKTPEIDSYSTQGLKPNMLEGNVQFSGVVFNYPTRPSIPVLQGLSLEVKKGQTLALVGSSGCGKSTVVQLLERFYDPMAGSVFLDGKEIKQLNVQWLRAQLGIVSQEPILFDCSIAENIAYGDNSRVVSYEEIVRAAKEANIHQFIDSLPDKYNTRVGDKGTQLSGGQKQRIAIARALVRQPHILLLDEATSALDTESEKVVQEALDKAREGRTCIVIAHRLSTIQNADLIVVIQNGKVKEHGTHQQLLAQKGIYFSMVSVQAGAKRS
# T2 sequence (Q8HZQ6 1-1283): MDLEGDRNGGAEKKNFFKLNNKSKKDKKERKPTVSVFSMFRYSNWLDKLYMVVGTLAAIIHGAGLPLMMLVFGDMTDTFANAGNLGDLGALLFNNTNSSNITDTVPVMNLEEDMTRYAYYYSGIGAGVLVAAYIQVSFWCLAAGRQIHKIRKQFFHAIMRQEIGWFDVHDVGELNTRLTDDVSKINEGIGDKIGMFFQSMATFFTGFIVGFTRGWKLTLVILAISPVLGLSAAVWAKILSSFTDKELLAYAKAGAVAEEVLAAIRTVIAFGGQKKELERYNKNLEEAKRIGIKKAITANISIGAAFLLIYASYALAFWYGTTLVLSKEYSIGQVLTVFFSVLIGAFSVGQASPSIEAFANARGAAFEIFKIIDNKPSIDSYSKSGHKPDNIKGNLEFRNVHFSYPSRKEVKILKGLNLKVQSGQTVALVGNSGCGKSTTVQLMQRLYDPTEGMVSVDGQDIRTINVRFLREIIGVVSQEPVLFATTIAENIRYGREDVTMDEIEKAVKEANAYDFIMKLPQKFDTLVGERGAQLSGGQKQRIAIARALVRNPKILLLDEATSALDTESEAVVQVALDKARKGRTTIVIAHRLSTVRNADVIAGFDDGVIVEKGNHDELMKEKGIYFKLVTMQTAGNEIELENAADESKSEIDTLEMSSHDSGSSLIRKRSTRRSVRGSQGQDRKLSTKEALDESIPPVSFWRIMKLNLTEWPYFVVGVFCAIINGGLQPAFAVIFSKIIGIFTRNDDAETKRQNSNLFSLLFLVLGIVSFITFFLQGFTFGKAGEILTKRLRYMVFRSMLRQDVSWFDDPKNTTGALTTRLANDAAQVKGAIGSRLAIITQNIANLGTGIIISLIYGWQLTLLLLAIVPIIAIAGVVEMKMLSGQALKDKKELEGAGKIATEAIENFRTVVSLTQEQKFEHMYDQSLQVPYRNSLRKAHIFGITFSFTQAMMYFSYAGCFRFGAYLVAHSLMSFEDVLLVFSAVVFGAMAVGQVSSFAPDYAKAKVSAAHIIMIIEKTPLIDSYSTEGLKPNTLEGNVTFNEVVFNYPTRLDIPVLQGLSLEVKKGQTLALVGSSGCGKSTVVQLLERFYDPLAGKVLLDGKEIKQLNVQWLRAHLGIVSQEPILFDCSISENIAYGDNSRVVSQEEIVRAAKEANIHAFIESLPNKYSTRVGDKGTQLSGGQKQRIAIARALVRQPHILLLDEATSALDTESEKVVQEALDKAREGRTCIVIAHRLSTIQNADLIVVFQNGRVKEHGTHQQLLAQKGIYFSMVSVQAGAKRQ
# T4 sequence (P08183 whole entry): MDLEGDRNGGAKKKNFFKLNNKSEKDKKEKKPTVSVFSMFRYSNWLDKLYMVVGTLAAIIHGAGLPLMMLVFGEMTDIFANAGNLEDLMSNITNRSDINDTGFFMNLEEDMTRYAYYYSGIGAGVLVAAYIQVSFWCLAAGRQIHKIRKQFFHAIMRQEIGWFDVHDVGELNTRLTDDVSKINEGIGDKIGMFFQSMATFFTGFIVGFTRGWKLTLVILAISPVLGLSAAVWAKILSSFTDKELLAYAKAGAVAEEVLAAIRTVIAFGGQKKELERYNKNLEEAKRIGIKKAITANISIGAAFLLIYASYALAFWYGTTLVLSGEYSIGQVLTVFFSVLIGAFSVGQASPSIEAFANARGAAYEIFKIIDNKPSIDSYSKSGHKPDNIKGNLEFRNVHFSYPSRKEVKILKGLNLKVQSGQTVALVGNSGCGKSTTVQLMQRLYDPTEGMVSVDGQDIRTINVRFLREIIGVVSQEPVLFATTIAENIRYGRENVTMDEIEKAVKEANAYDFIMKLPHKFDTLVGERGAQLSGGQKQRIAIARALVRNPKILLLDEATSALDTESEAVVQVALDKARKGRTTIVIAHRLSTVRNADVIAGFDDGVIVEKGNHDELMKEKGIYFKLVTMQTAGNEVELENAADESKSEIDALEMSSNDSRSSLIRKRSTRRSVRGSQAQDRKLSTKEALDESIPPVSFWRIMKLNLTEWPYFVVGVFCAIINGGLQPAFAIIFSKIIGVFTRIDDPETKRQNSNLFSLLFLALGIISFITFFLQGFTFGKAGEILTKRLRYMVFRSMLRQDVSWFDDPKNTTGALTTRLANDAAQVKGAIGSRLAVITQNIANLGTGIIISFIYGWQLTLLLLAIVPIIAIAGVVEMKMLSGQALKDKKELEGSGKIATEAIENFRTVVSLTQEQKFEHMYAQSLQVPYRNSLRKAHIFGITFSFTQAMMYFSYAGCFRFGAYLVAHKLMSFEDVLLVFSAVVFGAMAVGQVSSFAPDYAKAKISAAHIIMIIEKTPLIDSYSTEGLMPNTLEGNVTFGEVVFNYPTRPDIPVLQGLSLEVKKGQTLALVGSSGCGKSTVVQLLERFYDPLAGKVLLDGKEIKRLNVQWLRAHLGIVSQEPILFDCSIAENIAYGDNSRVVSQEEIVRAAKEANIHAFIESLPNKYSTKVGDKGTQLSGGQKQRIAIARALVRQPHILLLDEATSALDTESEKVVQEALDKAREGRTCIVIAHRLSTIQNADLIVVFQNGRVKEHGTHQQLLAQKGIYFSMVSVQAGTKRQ
Structure (SMILES),"efflux ratio at 120 min, 1 µM (rat Mdr1a [6])","efflux ratio at 120 min, 1 µM (mouse Mdr1a [7])","efflux ratio at 120 min, 1 µM (human BCRP)","efflux ratio at 120 min, 1 µM (in vitro)","efflux ratio at 120 min, 1 µM (cynomolgus monkey Mdr1 [8])","efflux ratio at 120 min, 1 µM (human MDR1 [9])",other results
CCC(C)n1ncn(-c2ccc(N3CCN(c4ccc(OCC5COC(Cn6cncn6)(c6ccc(Cl)cc6Cl)O5)cc4)CC3)cc2)c1=O (stereo not shown) [Itraconazole],–,–,–,–,–,–,"IC50 (rat Mdr1a [1]; [10]): 4.41 ± 1.05 µM; IC50 (rat Mdr1a [1]; [11]): 0.15 ± 0.07 µM; IC50 (cynomolgus monkey Mdr1 [2]): 0.32 ± 0.12 µM; IC50 (mouse Mdr1a [3]; [12]): 1.39 ± 0.5 µM; IC50 (mouse Mdr1a [3]; Inhibition of quinidine transport IC50±SD, mMDR1, probe 3H-quinidine 1 µM, 60 min): 0.48 ± 0.11 µM; IC50 (cynomolgus monkey Mdr1 [4]): 0.36 ± 0.19 µM"
CC(C)(C)NC(=O)[C@@H]1C[C@@H]2CCCC[C@@H]2CN1C[C@@H](O)[C@H](Cc1ccccc1)NC(=O)[C@H](CC(N)=O)NC(=O)c1ccc2ccccc2n1 [Saquinavir],–,–,–,–,–,–,IC50 (rat Mdr1a [1]; [10]): 25 ± 11.4 µM; IC50 (rat Mdr1a [1]; [11]): 12.3 ± 5.02 µM; IC50 (cynomolgus monkey Mdr1 [2]): 20.7 ± 7.67 µM; IC50 (cynomolgus monkey Mdr1 [4]): 12.3 ± 5.44 µM
CC(C)(C)NCC(O)COc1ccc(NC(=O)NC2CCCCC2)cc1 (stereo not shown) [talinolol],–,–,–,–,–,–,"Inhibition of digoxin transport IC50±SD, hMDR1 (human MDR1 [5]; probe 3H-digoxin 1 µM, 120 min): no inhibition; Inhibition of quinidine transport IC50±SD, hMDR1 (human MDR1 [5]; [13]): no inhibition; Inhibition of digoxin transport IC50±SD, rMDR1 (rat Mdr1a [1]; probe 3H-digoxin 1 µM, 120 min): no inhibition; Inhibition of quinidine transport IC50±SD, rMDR1 (rat Mdr1a [1]; probe 3H-quinidine 1 µM, 30 min): no inhibition; Inhibition of quinidine transport IC50±SD, cyMDR1 (cynomolgus monkey Mdr1 [2]; probe 3H-quinidine 0.1 µM): no inhibition; Inhibition of digoxin transport IC50±SD, mMDR1 (mouse Mdr1a [3]; probe 3H-digoxin 1 µM, 120 min): no inhibition; Inhibition of quinidine transport IC50±SD, mMDR1 (mouse Mdr1a [3]; [13]): no inhibition"
CCNc1nc(Cl)nc(NC(C)C)n1 [Atrazine],0.46 ± 0.04,0.59 ± 0.1,0.63 ± 0.02,0.52 ± 0.04,0.54 ± 0.03,0.52 ± 0.04,–
CN(C)CCc1c[nH]c2ccc(C[C@H]3COC(=O)N3)cc12 [Zolmitriptan],2.69 ± 0.16,1.99 ± 0.16,3.94 ± 0.25,0.97 ± 0.09,2.24 ± 0.22,4.3 ± 0.26,–
CCN(CC)CCNC(=O)c1cc(Cl)c(N)cc1OC [Metoclopramide],3.02 ± 0.28,2.55 ± 0.21,2.42 ± 0.33,0.85 ± 0.07,1.44 ± 0.14,5.55 ± 0.43,–
CNC(=C[N+](=O)[O-])NCCSCc1ccc(CN(C)C)o1 [Ranitidine],2.63 ± 0.19,2.09 ± 0.3,10.3 ± 0.96,0.91 ± 0.06,2.14 ± 0.25,2.89 ± 0.15,–
O=C1c2c(O)ccc(O)c2C(=O)c2c(NCCNCCO)ccc(NCCNCCO)c21 [Mitoxantrone],17.6 ± 1.56,28.6 ± 4.05,55.6 ± 10.8,1.15 ± 0.14,40.3 ± 2.47,5.66 ± 0.54,–
CN(C)CCC(c1ccccc1)c1ccccn1 (stereo not shown) [Pheniramine],1.09 ± 0.03,1.1 ± 0.1,1.02 ± 0.03,0.78 ± 0.04,0.99 ± 0.02,1.45 ± 0.05,–
COc1cc2nc(N3CCN(C(=O)c4ccco4)CC3)nc(N)c2cc1OC [Prazosin],6.5 ± 0.22,5.14 ± 0.39,–,0.72 ± 0.03,2.42 ± 0.15,9.35 ± 0.45,"ER in MDCKII BCRP (human BCRP; 1 µM, 120 min, mean ± SD): 14.79 ± 1.68"
C[C@]12C=CC(=O)C=C1CC[C@@H]1[C@@H]2C(=O)C[C@@]2(C)[C@H]1CC[C@]2(O)C(=O)CO [Prednisone],9.6 ± 1.82,6.6 ± 0.57,1.33 ± 0.1,0.82 ± 0.11,4.41 ± 0.52,17.3 ± 2.38,–
CC/C(=C(\c1ccccc1)c1ccc(OCCN(C)C)cc1)c1ccccc1 [Tamoxifen],1.61 ± 0.18,2.26 ± 0.76,0.81 ± 0.14,2.25 ± 1.24,1.81 ± 0.51,1.65 ± 0.24,–
CN/C(=N/CCSCc1nc[nH]c1C)NC#N [Cimetidine],9.86 ± 0.98,2.83 ± 0.37,72.5 ± 11.5,1.42 ± 0.19,2.75 ± 0.32,6.98 ± 0.72,–
COc1ccc2c(c1)[C@]13CCCC[C@@H]1[C@H](C2)N(C)CC3 [Dextromethorphan],0.94 ± 0.09,0.78 ± 0.05,0.66 ± 0.08,0.98 ± 0.1,0.75 ± 0.06,1.03 ± 0.08,–
CN(C)CCOC(C)(c1ccccc1)c1ccccn1 (stereo not shown) [Doxylamine],1.39 ± 0.03,1.25 ± 0.06,0.97 ± 0.09,0.83 ± 0.03,0.96 ± 0.06,1.68 ± 0.04,–
COc1cc([C@@H]2c3cc4c(cc3[C@@H](O[C@@H]3O[C@@H]5CO[C@@H](C)O[C@H]5[C@H](O)[C@H]3O)[C@H]3COC(=O)[C@H]23)OCO4)cc(OC)c1O [Etoposide],5.98 ± 0.85,6.87 ± 1.42,14 ± 2.31,0.67 ± 0.08,4.41 ± 0.91,11.2 ± 0.8,–
CCN1CCCC1CNC(=O)c1cc(S(=O)(=O)CC)c(N)cc1OC (stereo not shown) [Amisulpride],10.5 ± 1.16,11.8 ± 0.85,28.9 ± 3.47,1.19 ± 0.07,6.22 ± 0.32,18.7 ± 1.92,–
NC(=O)N1c2ccccc2C=Cc2ccccc21 [Carbamazepine],0.86 ± 0.08,0.79 ± 0.07,0.86 ± 0.12,0.61 ± 0.06,0.75 ± 0.07,0.62 ± 0.06,–
O=c1n(CCCN2CCN(c3cccc(Cl)c3)CC2)nc2ccccn12 [Trazodone],1.4 ± 0.16,0.98 ± 0.24,0.86 ± 0.11,2.66 ± 0.59,1.5 ± 0.1,1.71 ± 0.34,–
O=C(CCCN1CCC(O)(c2ccc(Cl)cc2)CC1)c1ccc(F)cc1 [Haloperidol],0.85 ± 0.15,0.72 ± 0.11,0.72 ± 0.1,0.74 ± 0.1,0.8 ± 0.22,0.89 ± 0.22,–
C=C[C@H]1C[N@@]2CC[C@H]1C[C@@H]2[C@@H](O)c1ccnc2ccc(OC)cc12 [Quinidine],–,–,–,–,–,–,IC50 (rat Mdr1a [1]; [10]): 2.93 ± 1.43 µM; IC50 (mouse Mdr1a [3]; [12]): 15 ± 4.06 µM
COc1ccc(CCN2CCC(Nc3nc4ccccc4n3Cc3ccc(F)cc3)CC2)cc1 [Astemizole],3.27 ± 0.73,4.52 ± 0.85,13.6 ± 2.46,1.43 ± 0.24,10.6 ± 1.49,12.2 ± 1.29,–
CN[C@H]1CC[C@@H](c2ccc(Cl)c(Cl)c2)c2ccccc21 [Sertraline],2.74 ± 0.28,2.93 ± 0.43,3.7 ± 0.67,3.57 ± 0.3,5.65 ± 0.81,3.1 ± 0.34,–
